# Patent publication US20050163814A1, “Granulated phosphoroamido(di) thioates” (priority 2002, published 2005)
# Where “and” joins values, the source holds several entries; their conditions need not be identical. Equal values may be shown once. Marks after values point to notes of the source that are not given here.
# Tests used:
# Assay type in all cases: physicochemical
# [1] = Particle size distribution (sieve openings) of acephate technical
# Method: The other half of the Source B sample was analyzed for particle size distribution as received and with the milling according to the invention. FIG. 1 (unmilled) and FIG. 2 (milled) are graphs of the particle size distributions from the milling process. All values are in terms of weight percent of total sample that could pass through the designated sieve opening.
# [2] = GE Brightness of acephate powder; details: bulk powder, reflected light
# Method: A sample of technical grade acephate crystals was obtained (Examples 1 and 3) and compared. […] Half of each sample was analyzed for brightness and particle size distribution.
# Milling caused a measurable increase in the brightness of the bulk powder sample as measured by reflected light. Such an increase is visually apparent as a noticeably brighter powder when compared side-by-side under the GE Brightness test.
# [3] = Crystal dimensions by visual inspection
# Text: The unmilled acephate from example 3 was a commercially available technical grade having elongated cylindrical shaped crystals with an average crystal length of 250-500 μm and an average width of 40-100 μm. In contrast, the acephate powder of example 4 was made of substantially cylindrical shaped crystals with an average crystal length of less than about 150 μm and an average width of less than 40 μm.
smiles,measurement,setting,value
"COP(=O)(NC(C)=O)SC (stereo not shown) [Ex. 4, acephate]","Summary Particle Size Distribution, Range","[1]; Sieve Size 2.3-3.9 μm, listed as Milled",15.26 wt %
same,"Summary Particle Size Distribution, Range","[1]; Sieve Size 4.6-16 μm, listed as Milled",41.93 wt %
same,"Summary Particle Size Distribution, Range","[1]; Sieve Size 4.6-37 μm, listed as Milled",62.09 wt %
same,"Summary Particle Size Distribution, Range","[1]; Sieve Size 4.6-88 μm, listed as Milled",71.47 wt %
same,"Summary Particle Size Distribution, Range","[1]; Sieve Size 19-37 μm, listed as Milled",20.16 wt %
same,"Summary Particle Size Distribution, Range","[1]; Sieve Size 44-88 μm, listed as Milled",9.39 wt %
same,"Summary Particle Size Distribution, Range","[1]; Sieve Size 105-149 μm, listed as Milled",1.38 wt %
same,"Summary Particle Size Distribution, Range","[1]; Sieve Size <1.9 μm, listed as Milled",11.73 wt %
same,"Summary Particle Size Distribution, Range","[1]; Sieve Size <3.9 μm, listed as Milled",26.99 wt %
same,"Summary Particle Size Distribution, Range","[1]; Sieve Size >105 μm, listed as Milled",1.54 wt % and 1.68 wt %
same,"Summary Particle Size Distribution, Range","[1]; Sieve Size >177 μm, listed as Milled",0.30 wt %
same,Particle Size Distribution,"[1]; Size 1.9 μm, listed as Milled",3.7746 weight percent
same,Particle Size Distribution,"[1]; Size 2.3 μm, listed as Milled",1.8957 weight percent
same,Particle Size Distribution,"[1]; Size 2.8 μm, listed as Milled",3.9085 weight percent
same,Particle Size Distribution,"[1]; Size 3.3 μm, listed as Milled",4.3981 weight percent
same,Particle Size Distribution,"[1]; Size 3.9 μm, listed as Milled",5.0539 weight percent
same,Particle Size Distribution,"[1]; Size 4.6 μm, listed as Milled",4.0079 weight percent
same,Particle Size Distribution,"[1]; Size 5.5 μm, listed as Milled",4.6002 weight percent
same,Particle Size Distribution,"[1]; Size 6.5 μm, listed as Milled",5.3931 weight percent
same,Particle Size Distribution,"[1]; Size 7.8 μm, listed as Milled",5.6669 weight percent
same,Particle Size Distribution,"[1]; Size 9.2 μm, listed as Milled",6.1254 weight percent
same,Particle Size Distribution,"[1]; Size 11 μm, listed as Milled",6.0030 weight percent
same,Particle Size Distribution,"[1]; Size 13 μm, listed as Milled",5.4418 weight percent
same,Particle Size Distribution,"[1]; Size 16 μm, listed as Milled",4.6925 weight percent
same,Particle Size Distribution,"[1]; Size 19 μm, listed as Milled",4.8575 weight percent
same,Particle Size Distribution,"[1]; Size 22 μm, listed as Milled",4.9085 weight percent
same,Particle Size Distribution,"[1]; Size 26 μm, listed as Milled",4.4529 weight percent
same,Particle Size Distribution,"[1]; Size 31 μm, listed as Milled",3.4498 weight percent
same,Particle Size Distribution,"[1]; Size 37 μm, listed as Milled",2.4873 weight percent
same,Particle Size Distribution,"[1]; Size 44 μm, listed as Milled",2.0818 weight percent
same,Particle Size Distribution,"[1]; Size 53 μm, listed as Milled",2.3280 weight percent
same,Particle Size Distribution,"[1]; Size 63 μm, listed as Milled",2.2067 weight percent
same,Particle Size Distribution,"[1]; Size 75 μm, listed as Milled",1.5439 weight percent
same,Particle Size Distribution,"[1]; Size 88 μm, listed as Milled",1.2313 weight percent
same,Particle Size Distribution,"[1]; Size 105 μm, listed as Milled",0.8371 weight percent
same,Particle Size Distribution,"[1]; Size 125 μm, listed as Milled",0.4144 weight percent
same,Particle Size Distribution,"[1]; Size 149 μm, listed as Milled",0.1331 weight percent
same,Particle Size Distribution,"[1]; Size 177 μm, listed as Milled",0.1199 weight percent
same,Particle Size Distribution,"[1]; Size 210 μm, listed as Milled",0.0486 weight percent
same,Particle Size Distribution,"[1]; Size 250 μm, listed as Milled",0.132 weight percent
same,Particle Size Distribution,"[1]; Size 298 μm, listed as Milled",0.0000 weight percent
same,Particle Size Distribution,"[1]; Size <1.9 μm, listed as Milled",7.9543 weight percent
same,Particle Size Distribution,"[1]; Size >298 μm, listed as Milled",0.0000 weight percent
same,mean particle size,[1]; listed as Milled,19.1 μm
same,median particle size,[1]; listed as Milled,10.3 μm
same,"Summary Particle Size Distribution, Cumul.","[1]; up to Sieve Size 2.3-3.9 μm, listed as Milled",26.99 wt %
same,"Summary Particle Size Distribution, Cumul.","[1]; up to Sieve Size 4.6-16 μm, listed as Milled",68.92 wt %
same,"Summary Particle Size Distribution, Cumul.","[1]; up to Sieve Size 19-37 μm, listed as Milled",89.07 wt %
same,"Summary Particle Size Distribution, Cumul.","[1]; up to Sieve Size 44-88 μm, listed as Milled",98.46 wt %
same,"Summary Particle Size Distribution, Cumul.","[1]; up to Sieve Size 105-149 μm, listed as Milled",99.85 wt %
same,"Summary Particle Size Distribution, Cumul.","[1]; up to Sieve Size <1.9 μm, listed as Milled",11.73 wt %
same,"Summary Particle Size Distribution, Cumul.","[1]; up to Sieve Size >177 μm, subject to rounding",˜100* wt %
same,GE Brightness,[2],93.7
same,Crystal dimensions: length,"[3]; Table 4, listed as Milled",40-90 μm
same,Crystal dimensions: width,"[3]; Table 4, listed as Milled",20-25 μm
same,Aspect ratio,"[3]; length:width, listed as Milled",2-3.6
same,average crystal length,[3]; visual inspection,less than 150 μm
same,average width,[3]; visual inspection,less than 40 μm
